The target in experiment [1] is T1, Kappa-type opioid receptor (Homo sapiens, UniProt P41145). Briefly: Activity at human recombinant KOR transfected in CHO cells assessed as reversal of stimulation of [35S]GTPgammaS binding. Format: functional, cell-based. As to conditions: filed as antagonist.
The test system of experiment [2] is Mus musculus. Briefly: Agonist activity in mouse by phenylquinone abdominal stretching assay at 1 mg/kg, sc. The format is functional. The conditions noted are these: Abdomen, route subcutaneous.
Experiment [3] deals with T2, Mu-type opioid receptor (Homo sapiens, UniProt P35372). Nature of the experiment: Reversal of stimulation of [35S]GTP-gamma-S binding to human recombinant MOR transfected in CHO cells relative to DAMGO. The format is functional, cell-based. Background: GTPγS resists hydrolysis and so accumulates on activated G proteins.
For experiment [4], the target named is T1, Kappa-type opioid receptor. The conditions noted are these: CHO.
Description: Reversal of stimulation of [35S]GTPgammaS binding to human recombinant KOR transfected in CHO cells relative to U69593
Experiment [5] deals with T1, Kappa-type opioid receptor. Nature of the experiment: biochemical. Format: cell-based, CHO.
Description: Displacement of [3H]U-69593 from human recombinant KOR expressed in CHO cells
In experiment [6] the target is T3, Delta-type opioid receptor (Homo sapiens, UniProt P41143). Briefly: Displacement of [3H]Cl-DPDPE from human recombinant DOR expressed in CHO cells. Format: cell-based. For orientation: Loss of bound radioactivity is the signal in a displacement assay; it reports binding, not function.
Experiment [7] has as its target T3, Delta-type opioid receptor. Briefly: Activity at human recombinant DOR transfected in CHO cells assessed as reversal of stimulation of [35S]GTP-gamma-S binding. The format is functional, cell-based.
Experiment [8] deals with T2, Mu-type opioid receptor. Briefly: Activity at human recombinant MOR transfected in CHO cells assessed as reversal of stimulation of [35S]GTP-gamma-S binding. The conditions noted are these: filed as antagonist. The format is functional, cell-based.
In experiment [9] the test system is Mus musculus. Briefly: Agonist activity in sc dosed mouse by tail flick assay. Format: functional.
The subject of experiment [10] is Mus musculus. Nature of the experiment: Antagonist activity against morphine-induced antinociception in sc dosed mouse by tail flick assay. Format: functional. Background: Hot-plate and tail-flick tests time the reaction to a heat stimulus.
Experiment [11] addresses T2, Mu-type opioid receptor. Briefly: Displacement of [3H]DAMGO from human recombinant MOR expressed in CHO cells. Format: cell-based.
Experiment [12] has as its target T3, Delta-type opioid receptor. The conditions noted are these: CHO.
Description: Reversal of stimulation of [35S]GTP-gamma-S binding to human recombinant DOR transfected in CHO cells relative to DPDPE
Experiment [13] has as its target T3, Delta-type opioid receptor. Nature of the experiment: Stimulation of [35S]GTP-gamma-S binding to human recombinant DOR. The format is functional.
For experiment [14], the target named is Mu-type opioid receptor (Cavia porcellus, UniProt P97266). Briefly: Binding affinity to MOR in guinea pig brain membrane. The format is cell membranes.
The target in experiment [15] is T2, Mu-type opioid receptor. Nature of the experiment: Stimulation of [35S]GTPgammaS binding to human recombinant MOR. Format: functional.
Experiment [16] addresses T3, Delta-type opioid receptor. Nature of the experiment: Stimulation of [35S]GTPgammaS binding to human recombinant DOR relative to DPDPE. The format is functional.
The target in experiment [17] is T1, Kappa-type opioid receptor. Nature of the experiment: Stimulation of [35S]GTP-gamma-S binding to human recombinant KOR. The format is functional.
The target of experiment [18] is Kappa-type opioid receptor (Cavia porcellus, UniProt P41144). Briefly: Binding affinity to KOR in guinea pig brain membrane. The format is cell membranes.
In experiment [19] the test system is Mus musculus. Briefly: Antagonist activity against morphine-induced antinociception in sc dosed mouse by hot water tail withdrawal assay at 32 mg/kg, sc. Format: functional. Details: scale not given: the % may be the effect or the level left. The conditions noted are these: route subcutaneous.
The test system of experiment [20] is Mus musculus. Briefly: Agonist activity in sc dosed mouse by hot water tail withdrawal assay at 10 mg/kg, sc. The format is functional. The conditions noted are these: route subcutaneous.
The subject of experiment [21] is Mus musculus. Nature of the experiment: Agonist activity in sc dosed mouse by phenylquinone abdominal stretching assay. Format: functional. As to conditions: Abdomen.
Experiment [22] concerns Mus musculus. Nature of the experiment: Agonist activity in sc dosed mouse by hot water tail withdrawal assay at 1 mg/kg, sc. The format is functional. As to conditions: route subcutaneous.
Experiment [23] concerns Mus musculus. Briefly: Agonist activity in mouse by hot water tail withdrawal assay at 32 mg/kg, sc. Format: functional. The conditions noted are these: route subcutaneous.
The test system of experiment [24] is Mus musculus. Briefly: Agonist activity in mouse by phenylquinone abdominal stretching assay at 0.3 mg/kg, sc. The format is functional. As to conditions: Abdomen, route subcutaneous.
Experiment [25] deals with Mus musculus. Nature of the experiment: Agonist activity in mouse by phenylquinone abdominal stretching assay at 30 mg/kg, sc. The format is functional. As to conditions: Abdomen, route subcutaneous.
For experiment [26], the system named is Mus musculus. Nature of the experiment: Antagonist activity against morphine-induced antinociception in sc dosed mouse by tail flick assay at 3 mg/kg, sc. Format: functional. As to conditions: route subcutaneous.

Where only a bound is given, the exact number is not on record here.

T1 sequence (P41145 whole entry): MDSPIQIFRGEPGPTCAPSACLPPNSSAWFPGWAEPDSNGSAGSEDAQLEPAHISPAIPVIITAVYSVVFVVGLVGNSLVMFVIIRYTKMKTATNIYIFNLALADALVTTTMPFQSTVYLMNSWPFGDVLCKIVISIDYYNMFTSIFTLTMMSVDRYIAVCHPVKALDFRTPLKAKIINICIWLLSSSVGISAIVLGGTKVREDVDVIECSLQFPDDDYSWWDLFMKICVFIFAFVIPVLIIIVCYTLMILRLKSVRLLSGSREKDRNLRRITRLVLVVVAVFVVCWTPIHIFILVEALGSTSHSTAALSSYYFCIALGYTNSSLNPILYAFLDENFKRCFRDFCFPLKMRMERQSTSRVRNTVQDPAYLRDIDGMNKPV
T2 sequence (P35372 whole entry): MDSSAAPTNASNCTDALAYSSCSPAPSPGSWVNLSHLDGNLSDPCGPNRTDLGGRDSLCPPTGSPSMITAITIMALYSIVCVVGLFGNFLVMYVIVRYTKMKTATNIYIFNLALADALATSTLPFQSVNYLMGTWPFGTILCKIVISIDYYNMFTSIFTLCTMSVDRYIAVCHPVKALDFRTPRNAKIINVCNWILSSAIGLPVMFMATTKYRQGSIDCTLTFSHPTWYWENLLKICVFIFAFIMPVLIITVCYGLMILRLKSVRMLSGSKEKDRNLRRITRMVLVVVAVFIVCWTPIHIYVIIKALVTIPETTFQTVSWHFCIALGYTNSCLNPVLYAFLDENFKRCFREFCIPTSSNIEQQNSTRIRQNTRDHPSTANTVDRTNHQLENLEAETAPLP
T3 sequence (P41143 whole entry): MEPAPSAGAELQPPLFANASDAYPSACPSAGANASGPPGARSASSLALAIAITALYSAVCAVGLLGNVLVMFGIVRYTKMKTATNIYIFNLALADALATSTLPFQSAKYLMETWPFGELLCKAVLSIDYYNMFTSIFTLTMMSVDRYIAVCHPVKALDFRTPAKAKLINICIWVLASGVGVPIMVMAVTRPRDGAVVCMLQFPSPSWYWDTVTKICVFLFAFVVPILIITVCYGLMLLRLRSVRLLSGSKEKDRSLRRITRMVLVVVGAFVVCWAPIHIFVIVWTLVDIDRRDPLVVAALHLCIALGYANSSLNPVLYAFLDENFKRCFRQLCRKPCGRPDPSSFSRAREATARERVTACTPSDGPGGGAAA
Sequence of Mu-type opioid receptor (Cavia porcellus, UniProt P97266) (P97266 whole entry): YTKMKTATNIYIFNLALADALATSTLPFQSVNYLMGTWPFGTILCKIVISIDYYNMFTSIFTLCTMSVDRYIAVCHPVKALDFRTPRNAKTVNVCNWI
Sequence of Kappa-type opioid receptor (Cavia porcellus, UniProt P41144) (P41144 whole entry): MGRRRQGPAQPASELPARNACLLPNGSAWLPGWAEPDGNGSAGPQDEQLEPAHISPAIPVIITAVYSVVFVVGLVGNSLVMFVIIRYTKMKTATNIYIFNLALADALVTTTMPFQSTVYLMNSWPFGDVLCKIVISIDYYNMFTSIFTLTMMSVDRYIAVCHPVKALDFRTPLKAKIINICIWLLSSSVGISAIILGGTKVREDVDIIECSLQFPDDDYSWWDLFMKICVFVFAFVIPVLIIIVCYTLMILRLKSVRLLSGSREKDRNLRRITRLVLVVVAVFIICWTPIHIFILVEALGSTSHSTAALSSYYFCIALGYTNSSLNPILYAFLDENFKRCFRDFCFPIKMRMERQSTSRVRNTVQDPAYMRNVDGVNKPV

As a reminder, the inhibition in vivo is how much of the control response was suppressed. One may read the Ki as the dissociation constant of the complex between target and ligand, obtained from inhibition or displacement. For orientation: ED50 means the midpoint of the dose-response relation. Take `Cc1ccc(/C=C/C(=O)N[C@@]23CCC(=O)[C@@H]4Oc5c(O)ccc6c5[C@@]42CCN(C)[C@@H]3C6)cc1`: the Activity result (in experiment [1]; in experiment [7] (filed as antagonist); on Mu-type opioid receptor [8]) was “Antagonist” each time. This compound gave an inhibition in vivo at 1 mg/kg with Mus musculus [2] of 57%. Also, the Ke at Mu-type opioid receptor [3] worked out at 0.3 nM; in experiment [4], 4.1 nM; in experiment [12], 2.2 nM. The Ki in [5] turned out to be 1.5 nM; in experiment [6] it was 4 nM; on Mu-type opioid receptor [11], 0.34 nM. The ED50 in the experiment with Mus musculus [9] was above 30 mg/kg. For the same compound, in the experiment with Mus musculus [10], the AD50 amounted to 0.6 mg/kg.
In general, EC50 refers to the concentration at which the effect is half-maximal. In the case of `COc1ccc2c3c1O[C@H]1C(=O)CC[C@@]4(NC(=O)/C=C/c5ccccc5Cl)[C@@H](C2)N(CC2CC2)CC[C@]314`, the EC50 turned out to be 17.5 nM in experiment [13], 3.8 nM on Mu-type opioid receptor [15] and 9 nM in experiment [17]. Further, the Ki at Mu-type opioid receptor [14] worked out at 0.6 nM; in [18], 2.4 nM. Further, the Activity in [16] is 36%; with Mus musculus [19] it was 10%; in the experiment with Mus musculus [20], above 90%.
For `CN1CC[C@]23c4c5ccc(O)c4O[C@H]2C(=O)CC[C@@]3(NC(=O)/C=C/c2ccc([N+](=O)[O-])cc2)[C@H]1C5`, the Ke turned out to be 0.13 nM on Mu-type opioid receptor [3], 3.3 nM in [4] and 1.4 nM in experiment [12]. The Ki was 5.5 nM in experiment [5], 0.54 nM in experiment [6] and 0.2 nM at Mu-type opioid receptor [11].
`COc1ccc2c3c1O[C@H]1C(=O)CC[C@@]4(NC(=O)/C=C/c5ccccc5C)[C@@H](C2)N(CC2CC2)CC[C@]314`: the figures for the EC50 (in experiment [13]; on Mu-type opioid receptor [15]; in experiment [17]) were 20.9 nM, 2.6 nM and 1.8 nM, respectively. The Ki came to 0.2 nM on Mu-type opioid receptor [14] and 2.1 nM in experiment [18]. For the same compound, the ED50 in the experiment on Mus musculus [21] and with Mus musculus [9] was 0.03 mg/kg each time. Moreover, the Activity was 39% in experiment [16], 10% in the experiment with Mus musculus [19] and above 90% in the experiment with Mus musculus [22]. Further, the AD50 in the experiment on Mus musculus [10] was above 30 mg/kg.
`O=C(/C=C/c1ccccc1)N[C@@]12CCC(=O)[C@@H]3Oc4c(O)ccc5c4[C@@]31CCN(CC1CC1)[C@@H]2C5`: the ED50 in the experiment on Mus musculus [9] is above 30 mg/kg. The compound further came in with an AD50 in the experiment with Mus musculus [10] of 1.3 mg/kg. Also, the Activity in the experiment with Mus musculus [19] worked out at 40%; in the experiment on Mus musculus [23], 0%. In the experiment on Mus musculus [24], this compound had an inhibition in vivo at 0.3 mg/kg of 66%.
As to `O=C(/C=C/c1ccccc1Cl)N[C@@]12CCC(=O)[C@@H]3Oc4c(O)ccc5c4[C@@]31CCN(CC1CC1)[C@@H]2C5`, the figures for the Ke (at Mu-type opioid receptor [3]; in experiment [4]; in [12]) were 0.45 nM, 0.38 nM and 0.67 nM, respectively. The Ki in experiment [5] worked out at 2.4 nM; in experiment [6], 1.3 nM; on Mu-type opioid receptor [11], 0.71 nM. The values for the Activity in the experiment on Mus musculus [19] and in the experiment with Mus musculus [23] were 65% and 0%, respectively.
Take `O=C(/C=C/c1ccc(Cl)cc1)N[C@@]12CCC(=O)[C@@H]3Oc4c(O)ccc5c4[C@@]31CCN(CC1CC1)[C@@H]2C5` [CLOCINNAMOX]: the Ke on Mu-type opioid receptor [3] was found to be 0.53 nM; in experiment [4], 0.1 nM; in experiment [12] it was 0.19 nM. Besides, 30 mg/kg produced 69% inhibition in vivo with Mus musculus [25]. For the same compound, the Ki came out at 1.4 nM in [5], 2.7 nM in experiment [6] and 2.98 nM at Mu-type opioid receptor [11]. This compound displayed an ED50 in the experiment on Mus musculus [9] above 30 mg/kg. This compound gave an AD50 in the experiment on Mus musculus [10] of 0.12 mg/kg. Moreover, the Activity is listed as above 90% in the experiment with Mus musculus [19] and 0% in the experiment with Mus musculus [23].
With `Cc1ccccc1/C=C/C(=O)N[C@@]12CCC(=O)[C@@H]3Oc4c(O)ccc5c4[C@@]31CCN(CC1CC1)[C@@H]2C5`, the figures for the Ke (on Mu-type opioid receptor [3]; in experiment [4]; in experiment [12]) were 0.29 nM, 0.16 nM and 0.4 nM, respectively. Besides, the ED50 in the experiment with Mus musculus [21] is 3.17 mg/kg; in the experiment on Mus musculus [9], above 30 mg/kg. Further, the Ki in experiment [5] worked out at 1.5 nM; in experiment [6] it was 1.25 nM; on Mu-type opioid receptor [11], 0.72 nM. Besides, the inhibition in vivo at 3 mg/kg with Mus musculus [26] was 50%. For the same compound, the values for the Activity in the experiment with Mus musculus [19] and in the experiment with Mus musculus [23] were 65% and 0%, respectively.
As for `COc1ccc2c3c1O[C@H]1C(=O)CC[C@@]4(NC(=O)/C=C/c5ccc([N+](=O)[O-])cc5)[C@@H](C2)N(CC2CC2)CC[C@]314`, the Activity with Mus musculus [19] is reported as 40%; in the experiment with Mus musculus [20] it was above 90%.
`Cc1ccccc1/C=C/C(=O)N[C@@]12CCC(=O)[C@@H]3Oc4c(O)ccc5c4[C@@]31CCN(C)[C@@H]2C5`: the EC50 in [13] worked out at 0.4 nM; at Mu-type opioid receptor [15], 0.04 nM; in [17], 0.2 nM. Besides, the ED50 was determined as 0.03 mg/kg in the experiment on Mus musculus [21] and 0.08 mg/kg with Mus musculus [9]. The Activity in experiment [16] was found to be 71%. For the same compound, the Ki in experiment [5] was 0.23 nM; in experiment [6] it was 0.11 nM; at Mu-type opioid receptor [11] it was 0.21 nM. Moreover, the AD50 with Mus musculus [10] was above 30 mg/kg.
With `Cc1ccc(CCC(=O)N[C@@]23CCC(=O)[C@@H]4Oc5c(O)ccc6c5[C@@]42CCN(C)[C@@H]3C6)cc1`, the Activity entry was “Antagonist” in [1], “Partial agonist” in experiment [7] (filed as partial agonist) and “Antagonist” at Mu-type opioid receptor [8]. Further, the Ke was 0.32 nM on Mu-type opioid receptor [3], 4.9 nM in [4] and “Partial agonist” in experiment [12] (filed as partial agonist). The ED50 was 0.09 mg/kg with Mus musculus [21] and 0.5 mg/kg with Mus musculus [9]. Besides, the Ki in [5] is 0.57 nM; in experiment [6] it was 1.25 nM; on Mu-type opioid receptor [11], 0.35 nM. In addition, the AD50 in the experiment with Mus musculus [10] was above 30 mg/kg.

The values are drawn from ChEMBL document CHEMBL1146036, “Structural determinants of opioid activity in derivatives of 14-aminomorphinones: effect of substitution in the aromatic ring of cinnamoylaminomorphinones and codeinones” (J Med Chem, 2006).
